Each block holds one compound with its values, some of them ahead of it. Calls of active or inactive are those of the source.
Experiments:
[1] = biological target: Nuclear receptor subfamily 5 group A member 2 (Homo sapiens, UniProt O00482); type: functional, cell-based;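 also: HEK293T cells transfected with LRH-1 and a StAR promoter luciferase reporter; potency for inhibitors that lower LRH-1 driven reporter light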
Steroidogenic factor 1 = Steroidogenic factor 1 (Homo sapiens, UniProt Q13285); assay: Counterscreen for inverse agonists of the liver receptor homolog-1 (LRH-1; NR5A2): Luminescence-based cell-based high throughput dose response assay to identify inverse agonists of the Steroidogenic Factor 1 Nuclear Receptor (SF1; NR5A1).; type: functional
[2] = StAR promoter reporter inhibition counter-screen, dose response, counter-screen for LRH-1 inverse agonist project, cell-based, luminescence, luciferase reporter (AID 651969); type: functional
[3] = biological target: T1, Corticotropin-releasing factor receptor 2/Corticotropin-releasing factor-binding protein (Homo sapiens, UniProt P24387+Q13324); assay: Dose Response confirmation of uHTS hits for small molecule antagonists of the CRF-binding protein and CRF-R2 receptor complex.; type: functional; conditions: read-out: IC50_Mean
T1 sequence (Q13324 whole entry): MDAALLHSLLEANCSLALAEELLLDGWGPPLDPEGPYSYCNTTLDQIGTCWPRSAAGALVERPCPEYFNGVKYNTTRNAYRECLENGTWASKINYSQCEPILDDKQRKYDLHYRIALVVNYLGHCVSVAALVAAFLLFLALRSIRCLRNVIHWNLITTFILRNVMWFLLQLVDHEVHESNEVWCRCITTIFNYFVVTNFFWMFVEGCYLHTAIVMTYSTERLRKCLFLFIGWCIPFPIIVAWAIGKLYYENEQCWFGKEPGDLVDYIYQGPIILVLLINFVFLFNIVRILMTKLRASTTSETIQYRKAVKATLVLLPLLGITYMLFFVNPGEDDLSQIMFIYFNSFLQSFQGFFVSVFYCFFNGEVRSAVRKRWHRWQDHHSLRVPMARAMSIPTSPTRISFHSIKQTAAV
T1 sequence (P24387 whole entry): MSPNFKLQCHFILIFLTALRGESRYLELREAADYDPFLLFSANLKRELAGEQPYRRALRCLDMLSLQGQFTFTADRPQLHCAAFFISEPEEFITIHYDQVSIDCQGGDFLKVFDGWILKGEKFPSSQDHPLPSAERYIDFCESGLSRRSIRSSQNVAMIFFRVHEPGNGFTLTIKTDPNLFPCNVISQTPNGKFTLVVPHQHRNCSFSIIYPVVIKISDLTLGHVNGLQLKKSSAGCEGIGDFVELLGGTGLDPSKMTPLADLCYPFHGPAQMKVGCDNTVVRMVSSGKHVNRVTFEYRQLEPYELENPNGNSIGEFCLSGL

[4] = biological target: T1, Corticotropin-releasing factor receptor 2/Corticotropin-releasing factor-binding protein; assay: activators of CRF receptor 2 with binding protein – uHTS hits, confirmation (AID 602473); type: functional; conditions: read-out: EC50_Mean
[5] = biological target: T2, Short transient receptor potential channel 4 (Mus musculus, UniProt Q9QUQ5); assay: mouse TRPC4 channel inhibitors, dose response, cell-based, HEK293 TRPC4/mu-opioid, Fluo-4 calcium (AID 434942); type: functional;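 also: potency of inhibitors blocking the TRPC4 calcium response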
T2 sequence (Q9QUQ5 whole entry): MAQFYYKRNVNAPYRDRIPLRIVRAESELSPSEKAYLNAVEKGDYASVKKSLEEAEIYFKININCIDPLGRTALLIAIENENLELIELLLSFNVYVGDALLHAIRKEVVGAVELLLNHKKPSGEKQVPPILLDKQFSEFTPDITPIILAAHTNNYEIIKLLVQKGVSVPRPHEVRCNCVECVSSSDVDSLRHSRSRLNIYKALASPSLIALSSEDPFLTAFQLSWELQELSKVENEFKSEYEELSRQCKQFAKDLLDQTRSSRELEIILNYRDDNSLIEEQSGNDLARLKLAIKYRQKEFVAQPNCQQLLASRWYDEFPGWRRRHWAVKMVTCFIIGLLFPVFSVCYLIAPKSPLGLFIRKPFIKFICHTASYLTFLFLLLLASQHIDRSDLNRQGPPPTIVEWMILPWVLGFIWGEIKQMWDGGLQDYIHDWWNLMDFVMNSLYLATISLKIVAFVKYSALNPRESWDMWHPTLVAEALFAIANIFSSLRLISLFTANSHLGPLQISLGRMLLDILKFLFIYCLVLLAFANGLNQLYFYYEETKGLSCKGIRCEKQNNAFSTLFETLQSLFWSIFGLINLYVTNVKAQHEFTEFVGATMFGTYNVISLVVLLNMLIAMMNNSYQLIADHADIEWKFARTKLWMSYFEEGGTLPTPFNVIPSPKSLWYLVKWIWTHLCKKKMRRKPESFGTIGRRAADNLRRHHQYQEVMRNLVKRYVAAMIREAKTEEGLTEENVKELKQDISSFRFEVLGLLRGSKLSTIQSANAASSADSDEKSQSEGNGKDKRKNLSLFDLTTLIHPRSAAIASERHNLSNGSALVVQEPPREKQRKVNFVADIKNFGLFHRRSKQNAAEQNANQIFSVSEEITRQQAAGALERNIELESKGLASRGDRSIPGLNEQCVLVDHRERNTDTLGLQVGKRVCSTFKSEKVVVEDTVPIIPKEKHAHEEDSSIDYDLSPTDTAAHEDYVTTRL

[6] = CRF-BP/CRF-R2 complex antagonists, dose response, cell-based, uHTS hits, 384-well (AID 651639); type: functional, Homo sapiens; conditions: read-out: IC50_Mean
[7] = biological target: T3, Probable nicotinate-nucleotide adenylyltransferase (Staphylococcus aureus (strain N315), UniProt P65502); type: functional, Staphylococcus aureus subsp. aureus N315;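 as to IC50 Mean: confirmatory dose-response retesting of NadD inhibitor hits first found in an ultra-high-throughput screen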
[8] = biological target: T3, Probable nicotinate-nucleotide adenylyltransferase; type: functional, Staphylococcus aureus subsp. aureus N315; conditions: read-out: IC50_Mean
[9] = biological target: T4, Low molecular weight phosphotyrosine protein phosphatase (Homo sapiens, UniProt P24666); type: functional; conditions: read-out: IC50_Mean
T4 sequence (P24666 whole entry): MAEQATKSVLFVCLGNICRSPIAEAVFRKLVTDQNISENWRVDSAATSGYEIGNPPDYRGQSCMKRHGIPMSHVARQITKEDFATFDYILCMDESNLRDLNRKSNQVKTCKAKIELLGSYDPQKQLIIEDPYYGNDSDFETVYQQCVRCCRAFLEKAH

[10] = biological target: T4, Low molecular weight phosphotyrosine protein phosphatase; type: functional; conditions: read-out: IC50_Mean; remark: listed apart in the source
[11] = biological target: Photoreceptor-specific nuclear receptor (Homo sapiens, UniProt Q9Y5X4); type: functional, cell-based;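 also: CHO-S cells with Gal4-NCOR and VP16-NR2E3 two-hybrid luciferase reporter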
[12] = biological target: T5, ATP-dependent translocase ABCB1 (Homo sapiens, UniProt P08183); assay: ABCG2 efflux pump inhibitor potency, dose response, Ig-MXP3 cells, JC-1, flow cytometry, set 2 (AID 504566); type: functional; conditions: read-out: EC50_MICROM_;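 also: flow cytometry median green fluorescence of retained JC-1 dye; potency of efflux pump inhibition measured as rising substrate retention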
[13] = biological target: T5, ATP-dependent translocase ABCB1; assay: ABCB1 efflux inhibitor potency, dose response, Jurkat-DNR cells, JC-1, flow cytometry, set 2 (AID 504569); type: functional; conditions: read-out: EC50_MICROM_;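 also: potency of pump inhibitors that raise cellular JC-1 green fluorescence up to the nicardipine level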
[14] = biological target: Heat shock protein HSP 90-alpha (Homo sapiens, UniProt P07900); type: functional, organism-based
[15] = Counterscreen for inhibitors of Trypanosoma brucei methionyl tRNA synthetase (MetRS): Luminescence-based cell-based high throughput dose response assay to identify compounds that are cytotoxic to Jurkat human T lymphocyte cells.; type: functional
[16] = biological target: T6, Methionyl-tRNA synthetase, putative (Trypanosoma brucei brucei, UniProt Q38C91); type: functional, Trypanosoma brucei brucei strain 927/4 GUTat10.1
T6 sequence (Q38C91 whole entry): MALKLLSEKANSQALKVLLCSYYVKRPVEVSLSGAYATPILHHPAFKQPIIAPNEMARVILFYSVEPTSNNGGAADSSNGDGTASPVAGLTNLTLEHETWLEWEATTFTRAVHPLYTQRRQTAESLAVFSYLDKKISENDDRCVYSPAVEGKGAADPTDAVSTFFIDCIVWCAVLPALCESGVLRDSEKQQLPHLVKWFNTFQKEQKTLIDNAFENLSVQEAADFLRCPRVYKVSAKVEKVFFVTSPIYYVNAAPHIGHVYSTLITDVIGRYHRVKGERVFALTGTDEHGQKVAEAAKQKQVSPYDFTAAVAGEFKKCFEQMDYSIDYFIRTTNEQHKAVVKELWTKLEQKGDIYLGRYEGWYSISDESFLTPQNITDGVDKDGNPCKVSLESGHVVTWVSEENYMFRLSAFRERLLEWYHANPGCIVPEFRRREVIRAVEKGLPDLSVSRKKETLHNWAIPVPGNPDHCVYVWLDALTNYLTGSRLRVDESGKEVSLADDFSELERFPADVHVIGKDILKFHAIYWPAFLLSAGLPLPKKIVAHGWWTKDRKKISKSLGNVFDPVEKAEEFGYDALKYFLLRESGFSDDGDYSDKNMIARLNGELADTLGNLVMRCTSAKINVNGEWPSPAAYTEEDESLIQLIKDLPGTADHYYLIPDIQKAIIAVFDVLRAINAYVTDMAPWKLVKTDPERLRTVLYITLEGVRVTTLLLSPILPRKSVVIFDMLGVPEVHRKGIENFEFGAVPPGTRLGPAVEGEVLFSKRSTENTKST

[17] = HEp-2 cell cytotoxicity, dose response, cytotoxicity control for RSV inhibitor project, HTS (AID 2410); type: functional; conditions: human respiratory syncytial virus
[18] = biological target: T6, Methionyl-tRNA synthetase, putative; type: functional, Trypanosoma brucei brucei strain 927/4 GUTat10.1; remark: listed apart in the source
[19] = biological target: T7, Rac GTPase-activating protein 1 (Homo sapiens, UniProt Q9H0H5); assay: MgcRacGAP GTPase-activating activity inhibitors, confirmation, biochemical, ADP Hunter fluorescence, primary and confirmatory (AID 624330); type: functional
T7 sequence (Q9H0H5 whole entry): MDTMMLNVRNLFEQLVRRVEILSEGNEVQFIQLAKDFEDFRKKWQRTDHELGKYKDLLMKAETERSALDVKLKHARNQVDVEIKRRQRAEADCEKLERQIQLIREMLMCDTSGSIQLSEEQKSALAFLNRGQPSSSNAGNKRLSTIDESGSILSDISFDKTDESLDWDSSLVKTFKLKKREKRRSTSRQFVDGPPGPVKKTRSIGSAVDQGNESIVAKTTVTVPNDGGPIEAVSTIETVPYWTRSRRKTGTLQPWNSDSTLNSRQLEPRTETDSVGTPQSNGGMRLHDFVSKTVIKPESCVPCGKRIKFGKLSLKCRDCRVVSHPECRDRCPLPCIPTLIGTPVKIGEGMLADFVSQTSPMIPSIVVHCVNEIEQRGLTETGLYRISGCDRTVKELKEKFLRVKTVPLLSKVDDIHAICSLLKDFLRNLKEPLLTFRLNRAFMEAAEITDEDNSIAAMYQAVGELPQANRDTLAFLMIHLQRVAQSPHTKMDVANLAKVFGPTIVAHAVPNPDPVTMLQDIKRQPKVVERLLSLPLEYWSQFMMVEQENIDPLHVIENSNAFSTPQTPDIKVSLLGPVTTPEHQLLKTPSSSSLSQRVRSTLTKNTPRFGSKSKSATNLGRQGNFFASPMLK

T5 sequence (P08183 whole entry): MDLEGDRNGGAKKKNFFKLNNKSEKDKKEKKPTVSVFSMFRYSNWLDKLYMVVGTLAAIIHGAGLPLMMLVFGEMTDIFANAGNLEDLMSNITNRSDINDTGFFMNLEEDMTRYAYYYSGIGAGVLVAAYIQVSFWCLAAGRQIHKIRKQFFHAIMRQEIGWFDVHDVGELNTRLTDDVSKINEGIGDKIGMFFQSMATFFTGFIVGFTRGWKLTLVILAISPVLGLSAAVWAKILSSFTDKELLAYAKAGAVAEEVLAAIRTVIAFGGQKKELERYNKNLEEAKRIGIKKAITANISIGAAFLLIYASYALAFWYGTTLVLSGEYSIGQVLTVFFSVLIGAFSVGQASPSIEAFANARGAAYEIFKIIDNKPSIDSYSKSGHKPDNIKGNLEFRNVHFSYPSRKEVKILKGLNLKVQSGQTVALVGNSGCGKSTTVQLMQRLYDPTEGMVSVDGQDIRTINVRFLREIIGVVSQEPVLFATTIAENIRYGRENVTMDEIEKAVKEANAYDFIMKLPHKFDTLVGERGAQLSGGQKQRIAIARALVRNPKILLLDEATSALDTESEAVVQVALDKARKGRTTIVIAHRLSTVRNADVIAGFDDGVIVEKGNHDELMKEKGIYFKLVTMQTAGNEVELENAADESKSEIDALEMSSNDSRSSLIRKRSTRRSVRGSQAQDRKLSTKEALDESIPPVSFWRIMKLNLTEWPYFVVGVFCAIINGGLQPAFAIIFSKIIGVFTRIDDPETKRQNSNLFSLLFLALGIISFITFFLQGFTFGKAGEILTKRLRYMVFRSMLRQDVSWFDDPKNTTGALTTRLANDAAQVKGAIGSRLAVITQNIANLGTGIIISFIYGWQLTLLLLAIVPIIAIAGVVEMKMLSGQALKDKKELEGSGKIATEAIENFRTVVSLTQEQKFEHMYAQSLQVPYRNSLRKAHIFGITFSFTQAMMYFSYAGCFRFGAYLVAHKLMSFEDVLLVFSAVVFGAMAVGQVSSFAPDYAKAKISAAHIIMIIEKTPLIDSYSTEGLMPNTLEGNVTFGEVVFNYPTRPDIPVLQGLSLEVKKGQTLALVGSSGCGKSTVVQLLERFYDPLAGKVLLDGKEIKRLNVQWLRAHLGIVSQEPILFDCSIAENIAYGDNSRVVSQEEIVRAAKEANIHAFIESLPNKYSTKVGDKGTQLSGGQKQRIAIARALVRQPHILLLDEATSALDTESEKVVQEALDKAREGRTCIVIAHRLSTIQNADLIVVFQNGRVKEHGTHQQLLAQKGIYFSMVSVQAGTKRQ
Nuclear receptor subfamily 5 group A member 2, sequence (O00482 whole entry): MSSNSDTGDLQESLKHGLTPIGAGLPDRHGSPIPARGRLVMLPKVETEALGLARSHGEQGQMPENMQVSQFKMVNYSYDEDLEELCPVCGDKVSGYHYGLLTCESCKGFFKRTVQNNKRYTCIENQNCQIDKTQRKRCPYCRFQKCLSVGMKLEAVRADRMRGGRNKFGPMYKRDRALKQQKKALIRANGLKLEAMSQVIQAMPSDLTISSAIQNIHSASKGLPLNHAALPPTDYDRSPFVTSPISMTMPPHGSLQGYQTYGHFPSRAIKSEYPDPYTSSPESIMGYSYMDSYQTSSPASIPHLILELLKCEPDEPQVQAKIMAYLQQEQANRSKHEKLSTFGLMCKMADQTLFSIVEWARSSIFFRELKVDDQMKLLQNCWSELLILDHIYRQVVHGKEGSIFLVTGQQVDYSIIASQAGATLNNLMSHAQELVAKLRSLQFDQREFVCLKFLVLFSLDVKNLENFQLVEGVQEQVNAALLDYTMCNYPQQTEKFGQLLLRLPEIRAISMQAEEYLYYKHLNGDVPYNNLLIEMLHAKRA
Steroidogenic factor 1, sequence (Q13285 whole entry): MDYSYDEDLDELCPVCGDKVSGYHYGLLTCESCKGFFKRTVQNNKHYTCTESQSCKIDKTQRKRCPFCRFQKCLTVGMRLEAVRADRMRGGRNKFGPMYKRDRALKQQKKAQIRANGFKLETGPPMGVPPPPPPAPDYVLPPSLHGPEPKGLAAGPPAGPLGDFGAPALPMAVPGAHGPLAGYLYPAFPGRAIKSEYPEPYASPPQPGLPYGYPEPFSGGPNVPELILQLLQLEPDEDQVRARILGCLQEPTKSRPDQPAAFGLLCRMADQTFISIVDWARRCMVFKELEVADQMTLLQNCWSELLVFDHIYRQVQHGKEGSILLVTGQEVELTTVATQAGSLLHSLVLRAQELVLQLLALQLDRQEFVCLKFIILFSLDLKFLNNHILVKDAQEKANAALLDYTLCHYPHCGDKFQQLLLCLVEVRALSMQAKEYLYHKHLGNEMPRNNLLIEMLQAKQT
Photoreceptor-specific nuclear receptor, sequence (Q9Y5X4 whole entry, the tested form may be a part): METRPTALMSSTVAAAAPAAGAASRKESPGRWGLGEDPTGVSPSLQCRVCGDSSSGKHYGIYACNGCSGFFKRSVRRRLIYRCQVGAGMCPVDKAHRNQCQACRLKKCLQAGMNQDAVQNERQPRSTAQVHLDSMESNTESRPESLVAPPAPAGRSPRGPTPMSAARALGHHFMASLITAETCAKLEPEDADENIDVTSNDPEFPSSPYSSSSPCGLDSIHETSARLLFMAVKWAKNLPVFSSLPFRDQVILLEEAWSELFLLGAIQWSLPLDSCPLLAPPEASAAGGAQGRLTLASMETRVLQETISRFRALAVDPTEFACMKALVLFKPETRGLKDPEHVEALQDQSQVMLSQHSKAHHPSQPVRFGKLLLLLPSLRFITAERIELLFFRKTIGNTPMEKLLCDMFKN

SMILES: O=C(CSc1nncc(O)n1)Nc1cccc([N+](=O)[O-])c1
IC50 [1]: 3.98 µM (active)
IC50 (Steroidogenic factor 1): 3.98 µM (active)
IC50 [2]: 13.7 µM (inactive)

IC50 [3]: 0.545 µM (active)
EC50 [4]: 34.8 µM (active)
EC50 [5]: 4.73 µM (active)
IC50 [6]: > 20 µM (inactive)
SMILES: COc1ccc(/C=C2\SC(=S)N(C(Cc3ccccc3)C(=O)O)C2=O)cc1 (stereo not drawn)

SMILES: CC(=O)Nc1ncc(Cc2cc(Cl)ccc2Cl)s1
IC50 [1]: 1.33 µM (active)
IC50 (Steroidogenic factor 1): 2.14 µM (active)
IC50 [2]: 35.9 µM (inactive)

IC50 [7]: 6.06 µM (active)
IC50 [8]: 20.4 µM (active)
SMILES: Cc1ccc(-n2nc3c(c2NC(=O)/C=C\c2ccc4c(c2)OCO4)CSC3)cc1

IC50 [9]: 63.3 µM (inactive)
IC50 [10]: 10.5 µM (active)
SMILES: CCC(C)Nc1nc(-c2ccc3c(c2)NC(=O)CO3)cs1 (stereo not drawn)

IC50 [11]: 3.75 µM (active)
SMILES: Cc1ccc(NC(=O)CNC(=O)c2cccc(C)c2)nc1

IC50 [11]: 2.47 µM (active)
SMILES: O=S(=O)(NC1CCCC1)c1ccc(S(=O)(=O)N2CCc3ccccc32)cc1

EC50 [12]: 7.22 µM (active)
EC50 [13]: 3.25 µM (inactive)
AC50 [14]: 7.93 µM (active)
SMILES: Cc1cc(N2CCN(C(=O)c3ccco3)CC2)n2nc(C)c(-c3ccccc3)c2n1

IC50 [9]: 7.12 µM (active)
IC50 [10]: 22.6 µM (inactive)
SMILES: Cc1cccc(-c2nc(NCCCN3CCOCC3)c3ccccc3n2)c1

SMILES: O=C(NCc1nc2ccccc2[nH]1)C1=C[C@H](c2csc3ccccc23)C[C@H](OCc2ccc(CO)cc2)O1
IC50 [15]: 47.7 µM (inactive)
IC50 [16]: 3.54 µM (active)
CC50 [17]: 41.1 µM (active)
IC50 [18]: 1.58 µM (active)

IC50 [3]: 39.6 µM (active)
EC50 [4]: > 53 µM (inactive)
IC50 [6]: > 20 µM (inactive)
IC50 [19]: 41.7 µM (active)
SMILES: COc1ccc(C)cc1NCc1cccc(OC)c1OC

IC50 [7]: 23.5 µM (active)
IC50 [8]: 55.6 µM (active)
SMILES: COC(=O)[C@H](CC(C)C)N1Cc2cc(OC)cc(OC)c2-c2ccccc2S1(=O)=O

EC50 [12]: 2.04 µM (active)
EC50 [13]: 3.04 µM (active)
SMILES: COc1ccc(C(=O)N2CCN(c3cc(-c4ccccc4)nc4cc(-c5cccc(Cl)c5)nn34)CC2)cc1

Source: ChEMBL document CHEMBL1201862, “PubChem BioAssay data set” (2004)
